Target: Nsp9COV19(C73S) as substrate of Nsp12COV19 NiRAN domain (Severe acute respiratory syndrome coronavirus 2, UniProt P0DTD1, C4213S)
Type: biochemical, SARS-CoV-2

Structure (SMILES): C=C1C(=O)[C@]23[C@H](O)[C@H]1CC[C@H]2[C@@]12CO[C@]3(O)[C@@H](O)[C@@H]1C(C)(C)CC[C@@H]2O [Compound 1, Oridonin]
- level of inhibition with mutant Nsp9 compared with wild-type: approximately threefold lower

From publication PMC8553373 (The Journal of Biological Chemistry, 2021)
